Assay results from US12673915B2, “Precursor compound of hexahydro-beta-acid component compound, feed composition and use thereof” (WISORIG TECHNOLOGIES PTE. LIMITED, priority 2020, dated 2026).

Legend:
[1] = Long-term stability in feeds at room temperature (25° C.±2° C., RH 60%±10%; HPLC); type: physicochemical; conditions: for stability / content in feeds at room temperature (in words): during the testing period
Source text: Feeds: ZUSF's premixed feed (A mixture of crushed Feed A and crushed Feed B at a weight ratio of 2:1, wherein Feed A was a 5.33% multi-premixed feed for piglets from ZUSF's Hao-Ru-Zhen-Jing, and B was a 2.67% multi-premixed feed for piglets from ZUSF's Hao-Ru-Zhen-Jing); creep feed for piglets from CP FEED; INSIGHTER's feed for broiler; 4% premixed feed from GUANGDONG CO-POWER.
Preparation of a sample of 1% premix of Ingredient: 1 g of an ingredient was respectively weighed out and evenly mixed with 99 g of corncob meal in a mixer to give a sample of 1% premix of an ingredient.
Preparation of a sample of 500 ppm feed of an ingredient: The sample of 1% premix of an ingredient was diluted step by step using the ZUSF's remixed feed to 5000 ppm and 500 ppm to give the sample of 500 ppm feed of an ingredient for later testing.
Preparation of a sample of 100 ppm feed of an ingredient: sample of 1% premix of an ingredient was diluted step by step using the creep feed for piglets from CP FEED to 1000 ppm and then 100 ppm to give the sample of 100 ppm feed of an ingredient for later testing.
Preparation of a sample of 100 ppm feed of an ingredient: The sample of 1% premix of an ingredient was diluted step by step using the INSIGHTER's feed for broiler to 1000 ppm and 100 ppm to give the sample of 100 ppm feed of an ingredient for later testing.
Preparation of a sample of 2000 ppm feed of an ingredient: The sample of 1% premix of an ingredient was diluted step by step using the 4% premixed feed from GUANGDONG CO-POWER to 5000 ppm and 2000 ppm to give the sample of 2000 ppm feed of an ingredient for later testing.
Method: Three replications of each feed sample were tested at the condition of 25° C.±2° C. and RH 60%±10%, wherein the replications of each feed sample were sampled in parallel for HPLC analysis on day 5, day 10, day 15, day 30, day 60, and day 90.
25.0 mg of an ingredient was accurately weighed out and dissolved in an appropriate amount of methanol or n-hexane by ultrasonication. The solution was then transferred to a volumetric flask and diluted to 50 mL to give a 500 ppm (by wt.) stock solution. The samples from the stock solution were diluted with methanol or n-hexane respectively to a concentration of 10 ppm, 25 ppm, 50 ppm, 100 ppm, and 250 ppm of work solution, and then the working solutions were filtered by 0.22 μm organic membranes. Between the concentration of a sample and the response value of HPLC peak area thereof, the linearity was adjusted and detected to give a standard curve.
5.0000 g of the samples sampled at different time intervals were respectively accurately weighed out, and dissolved in 25 mL of methanol or n-hexane by ultrasonication for 10 minutes. The resulting solutions were filtered by organic membranes and then analyzed by HPLC.
• Equipment: Waters e2695 with PDA detector. • Mobile phase: 0.02% phosphoric acid:methanol=5:95 (v:v). • Column: Symmetry Cis column (Waters; 250 mm×4.6 mm, 5 μm). • Wavelength: 235 nm. • Temperature of the Column: 25° C. • Injection volume: 10 μL. • Flow rate: 1 mL/min. Normal Phase Chromatography: • Equipment: Shimadzu LC-14C/SPD-15C. • Column: SuperSil NH2 column ([…]; 250 mm×4.6 mm). • Mobile phase: n-hexane:isopropanol=60:40 (v:v). • Wavelength: 235 nm. • Temperature of the Column: 25° C. • Injection volume: 20 μL. • Flow rate: 1 mL/min. 3: Results

[2] = Photostability testing under illumination of 4500 Lx of ingredient and 1% premix (HPLC); type: physicochemical; conditions: for Residual amount of active ingredient: 4500 Lx
Source text: Preparation of a sample of 1% premix of an ingredient: 1 g of an ingredient was respectively weighed out and evenly mixed with 99 g of corncob meal in a mixer to give a sample of 1% premix of an ingredient for testing.
Photostability testing: The samples of an ingredient and 1% premix thereof were respectively spread in petri dishes to form thin layers of <5 mm, and kept under an illumination of 4500 Lx. Three replications for a sample were sampled in parallel on day 5 and day 10 for HPLC analysis.
25.0 mg of an ingredient was accurately weighed out and dissolved in an appropriate amount of methanol by ultrasonication. The solution was then transferred to a volumetric flask and diluted to 25 mL with methanol to give a stock solution. The samples from the stock solution were diluted with methanol respectively to a concentration of 100 ppm, 500 ppm, and 1000 ppm of work solution, and then the working solutions were filtered by 0.22 μm organic membranes. Between the concentration of a sample and the response value of HPLC peak area thereof, the linearity was adjusted and detected to give a standard curve.
2.3: Preparation of Sample Solution 25.0 mg of an ingredient and 2.0000 g of a sample of 1% premix thereof were respectively accurately weighed out, and dissolved in 25 mL of methanol by ultrasonication for 10 minutes. The resulting solutions were filtered by organic membranes and then analyzed by HPLC. 2.4: Testing Conditions for HPLC • Column: Symmetry Cis column (Waters; 250 mm*4.6 mm, 5 μm). • Mobile phase: 0.02% phosphoric acid:methanol=5:95 (v:v). • Wavelength: 235 nm. • Temperature of the Column: 25° C. • Injection volume: 10 μL. • Flow rate: 1 mL/min. 3: Results

[3] = 100 ppm in INSIGHTER's broiler feed, Day 5
[4] = 100 ppm in INSIGHTER's broiler feed, Day 15
[5] = 100 ppm in INSIGHTER's broiler feed, Day 30
[6] = 100 ppm in INSIGHTER's broiler feed, Day 60
[7] = 100 ppm in creep feed for piglets from CP FEED, Day 5
[8] = 100 ppm in creep feed for piglets from CP FEED, Day 15
[9] = 100 ppm in creep feed for piglets from CP FEED, Day 30
[10] = 100 ppm in creep feed for piglets from CP FEED, Day 60
[11] = 100 ppm in creep feed for piglets from CP FEED, Day 90
[12] = 500 ppm in ZUSF's premixed feed, Day 5
[13] = 500 ppm in ZUSF's premixed feed, Day 15
[14] = 500 ppm in ZUSF's premixed feed, Day 30
[15] = 500 ppm in ZUSF's premixed feed, Day 60
[16] = 500 ppm in ZUSF's premixed feed, Day 90
[17] = 1% Premix of an ingredient (corncob meal), Day 5
[18] = 1% Premix of an ingredient (corncob meal), Day 10

SMILES	Residual amount of active ingredient [1, 3] [%]	Residual amount of active ingredient [1, 4] [%]	Residual amount of active ingredient [1, 5] [%]	Residual amount of active ingredient [1, 6] [%]	Residual amount of active ingredient [1, 7] [%]	Residual amount of active ingredient [1, 8] [%]	Residual amount of active ingredient [1, 9] [%]	Residual amount of active ingredient [1, 10] [%]	Residual amount of active ingredient [1, 11] [%]	Residual amount of active ingredient [1, 12] [%]	Residual amount of active ingredient [1, 13] [%]	Residual amount of active ingredient [1, 14] [%]	Residual amount of active ingredient [1, 15] [%]	Residual amount of active ingredient [1, 16] [%]	stability / content in feeds at room temperature (in words) [1]	Residual amount of active ingredient [2, 17] [%]	Residual amount of active ingredient [2, 18] [%]	Residual amount of active ingredient ([2]; Ingredient, Day 5) [%]	Residual amount of active ingredient ([2]; Ingredient, Day 10) [%]	other results
CC(=O)OC1=C(CCC(C)C)C(=O)C(CCC(C)C)(CCC(C)C)C(O)=C1C(=O)C(C)C [hexahydro-colupulone mono-acetate, Hexahydro-Colupulone Mono-Acetate]	94.93	81.77	72.30	71.97	97.69	96.27	96.22	96.16	95.08	96.65	96.65	96.84	95.23	85.29	relatively poor in some of the feeds	99.28	98.82	98.97	98.31	–
CCCC(=O)OC1=C(CCC(C)C)C(=O)C(CCC(C)C)(CCC(C)C)C(O)=C1C(=O)C(C)C [hexahydro-colupulone mono-butyrate]	99.00	98.79	98.39	98.11	98.19	96.62	95.70	95.47	95.77	100.31	98.23	96.01	96.13	95.29	–	99.14	98.08	99.99	99.10	Residual amount of active ingredient ([1]; 2000 ppm in 4% premixed feed from GUANGDONG CO-POWER, Day 5): 98.62%; Residual amount of active ingredient ([1]; 2000 ppm in 4% premixed feed from GUANGDONG CO-POWER, Day 15): 95.56%; Residual amount of active ingredient ([1]; 2000 ppm in 4% premixed feed from GUANGDONG CO-POWER, Day 30): 95.48%; Residual amount of active ingredient ([1]; 2000 ppm in 4% premixed feed from GUANGDONG CO-POWER, Day 60): 96.34%; Residual amount of active ingredient ([1]; 2000 ppm in 4% premixed feed from GUANGDONG CO-POWER, Day 90): 95.41%
CC(C)CCC1=C(O)C(C(=O)C(C)C)=C(O)C(CCC(C)C)(CCC(C)C)C1=O [hexahydro-colupulone, reference compound]	–	–	–	–	98.28	96.93	93.07	77.54	68.28	–	–	–	–	–	decreased substantially	90.11	83.62	92.71	85.66	change of active ingredient ([2]; active ingredient of 1% premix, photostability testing, day 10): more than 15%
